Laboratory results reported in US20010025105A1, “Certain substituted 1-aryl-3-piperazine-1'-yl propanones” (Molecular Geriatarics Corporation, priority 1997, published 2001).
pIC50: −log10 of the molar value. Structures can show the parent of a compound that is named as a salt. Where two headings read alike, the source gives them in different places.

Experiments:
Candida albicans SRI 523 = assay: Agar disc diffusion assay; type: cell-based; conditions: 240 ug/disc, about 24 hr at 37° C.
Experimental: (§1) The activity of the compounds is determined using the following assay. The compound is dissolved in DMSO at a concentration of 6 mg/ml and then diluted with water to a final concentration of 3 mg/ml in 50% DMSO (% DMSO was shown not to be inhibitory to the test organisms). An aliquot (0.08 ml) of each drug solution was transferred to filter paper discs (12.7 mm diameter, Scmeicherand Schuell) for use in the agar diffusion assay. The concentration of each drug on the filter paper disc was 240 ug/disc. The test organisms included the following: Gram-positive aerobes (Staphylococcus aureus SRI 1323, Streptococcus pneumoniae SRI 1167); Gram-negative aerobe (Proteus vulgaris SRI 180); and the yeast Candida albicans SRI 523. An agar disc diffusion assay was used to evaluate the antimicrobial activity of the test compounds. Briefly, cultures were prepared from 16-20 hr agar slant cultures by inoculating in physiological saline to a turbidity equivalent to a #0.5 McFarland turbidity standard for the bacteria and a #3 McFarland standard for C. albicans. The surface of Mueller-Hinton agar (15×100 mm plates, mm) were evenly inoculated with each standardized culture using a cotton swab. Filter paper discs containing the drug concentration listed above were then placed on the inoculated agar plates along with a disc containing the solvent used to dissolve each drug. The plates were incubated at 37° C. for about 24 hr and the diameters of the zones of inhibition measured with a vernier caliper. Positive control drugs consisted of streptomycin for use with the bacterial strains and 5-fluorocytosine for use with C. albicans. The positive control drugs were assayed as described above for the compounds of the present invention using the same concentration.

[1] = test system: TG3 immunoreactivity in OKA treated MSN1a cells; assay: MSN1a cell culture model, ELISA with TG3 antibody, okadaic acid treated cells; type: cell-based, human; conditions: 1 μM OKA, 2 hrs at 37° C., read-out: IC50 for inhibition of TG3 immunoreactivity in OKA treated MSN1a cells
Experimental: This assay can thus be used to determine whether a drug is capable of preventing or intervening in AD by attenuating the production of abnormally phosphorylated paired helical filament epitopes associated with AD. To determine whether a drug is capable of preventing or intervening in AD activity, the MSN1a cells containing tau and associated proteins are treated with OKA capable of greatly increasing immunoreactivity of the MSN1a cells with AD specific monoclonal antibodies. Then, either prior to or concomitantly with OKA treatment, a compound of the present invention is added to the culture. If the compound prevents the induction of the AD epitopes in the MSN1a cells treated with OKA, then it is said to have anti-AD activity. If the AD-specific antibodies are highly reactive with the neuroblastoma cells following OKA treatment in the presence of compound, then the compound is said to be ineffectual against AD.
The MSN1a human neuroblastoma line was subcloned from a population of MSN cells obtained from the laboratory of Dr. Peter Davies (Albert Einstein College of Medicine, New York, N.Y.). Cells were grown and maintained in flasks in RPMI 1640 medium, supplemented with 15% fetal calf serum, 100 U/ml penicillin, 100 U/ml Streptomycin, 0.5 ug/ml fungizone under 7.5% CO2 at 37° C.
Stock solutions of drugs were prepared by dissolving the anhydrous powders to final concentrations of either 10 or 20 mM in 50% aqueous or 100% dimethyl sulfoxide (DMSO), respectively. Working solutions of drugs were prepared by dilution of the stock solutions with Kreb's Ringer in Hepes buffer (KRH) (128 mM NaCl, 5 mM KCl, 2.5 mM CaCl2 1.2 mM MgSO4, 1 mM Na2HPO4, 10 mM dextrose, 20 mM Hepes, pH 7.4). OKA is maintained as a 1 mM stock solution in DMSO prior to dilution to 4 μM in KRH.
MSN cells grown in 225 cm^2 flasks are removed from the incubator, their medium decanted and replaced with 50 ml pre-warmed KRH. The cells are harvested by scraping prior to sedimentation at 1000 rpm for 5 min. The supernatants are discarded and the cell pellets are resuspended, the cells counted and diluted to a density of 2×10^4 cells/[…]. The cells are then plated in a 96 well plate at 50 μl/well and 25 μl of 4 μM OKA and 25 μl of drug are then added to the appropriate wells; the entire 96 well plate is then incubated for 2 hrs at 37° C. Depending on the dilution of drug added, this yields individual wells containing 1 μM OKA, 0-64 μM drug and 2×10^4 cells in 0.26% DMSO in KRH. The incubation is terminated by the addition of 20 μl of 6X extraction buffer and immediate freezing at −80° C. for at least one hr. The 6X extraction buffer contains: 25 mM Tris-HCl, pH 7.6, 150 mM NaCl, 5 mM EDTA, 24 mM β-glycerol phosphate, 10 μg/ml APMSF (4-amidinophenylmethane-sulfonyl flouride), and 2.5 μg/ml each of leupeptin, aprotinin, and pepstatin. The plates are thawed in a 37° C. water bath and 20 μl of cell lysate is added to a replica well in an ELISA plate that already contains 80 μl of coating buffer (15 mM Na2CO3 and 35 mM NaHCO3, pH 9.6). The plates are allowed to coat overnight at 4° C. The plates are washed four times with deionized water and then blocked for 30 min at 37° C. with 200 μl/well pre-warmed 1% bovine serum albumin in 10 mM Tris-HCl, pH 7.4, 150 mM NaCl, 3 mM NaN3 (BSA-TBS). After the blocking solution is removed, 100 μl/well of an appropriate dilution of pre-warmed primary antibody (eg., TG3 or PHF-1) in BSA-TBS is added and incubated at 37° C. for 30 min. Incubation is terninated by washing four times in deionized water at which time 100 μl of an appropriate dilution of pre-warmed secondary antibody (conjugated to alkaline phosphatase) in BSA-TBS is added to each well in the ELISA plate. Incubation is performed for 30 min at 37° C. followed by washing 4 times with deionized water. […] of prewarmed chromogenic substrate (1 mg/mnl p-nitrophenyl phosphate in 10% diethanolamine, 3 mM NaN3, 0.5 mM MgCl2, pH 9.8) is added and the plate incubated for 30 min at 37° C. […]

[2] = test system: microtubule cytoskeleton of human CG neuroblastoma cells; assay: Antimicrotubule activity, tubulin immunofluorescence microscopy; type: cell-based; conditions: 2 hr at 37° C., read-out: Concentration where microtubule destabilization occurs
Experimental: The compounds of the invention according to formula I are effective in destabilizing microtubules, thus are useful in treating certain neoplastic diseases. Indirect immunofluorescence microscopy using the monoclonal antibodies to tubulin is used herein to determine the activity of the compounds of this invention in promoting depolymerization of the microtubule cytoskeleton in cultured cells. The following assay was employed.
Cultured human CG neuroblastoma cells were seeded 1:3 from confluent cultures onto sterile 11×22 mm coverslips in 6 well tissue culture plates 16 hr prior to treatment. The following day, the tissue culture medium is removed and the cells are exposed to various concentrations of compounds of this invention in Krebs Ringer Hepes (KRH) buffer containing a final concentration of 0.5% DMSO as carrier. Incubations were performed at 37° C. in a humidified 5% CO2 atmosphere for 2 hr. After incubation, the cells were fixed in 3% TEM grade formaldehyde in PBS for 45 min at room temperature.
To visualize the effects of the compounds of the invention on the microtubule cytoskeleton, the cells were processed for tubulin immunofluorescence. Briefly, the cells were permeabilized in 0.5% Triton-X 100 in PBS for 5 min. The cells were washed 2× with PBS and aldehydes reduced using 0.5 mg/ml NaBH4 in PBS for 5 min. Subsequently, the cells were blocked for 10 min in 1.5% BSA and 1.5% nonfat dry milk in PBS (blocking solution, BS) for 10 min. The cells were then incubated for 30 min at 37° C. with the monoclonal antibody Tu27B which recognizes b-tubulin (dilution 1:20 in BS). Subsequently, the cells were washed 2× in PBS and once in BS. The cells were then incubated for 30 min at 37° C. with sheep antimouse IgG conjugated to FITC. After incubation, the cells were washed 2× in PBS and once in BS and incubated for 30 min at 37° C. with rabbit antisheep IgG conjugated to FITC. The cells were rinsed in PBS, counterstained with Hoechst 33285 in PBS (1 μg/ml), and rinsed in PBS. The coverslips were mounted in 9:1 glycerol:PBS containing 1 mg/ml p-phenylenediamine and sealed with nail polish.
The cells were viewed using a Jenalumar epifluorescence microscope equipped with the proper filters for Fluorescein Isothiocyanate (FITC) excitation and emission. Lack of effect of a compound is evidenced by the presence of an intact microtubule network in interphase cells, or a mitotic spindle in dividing cells. Antineoplastic compounds of the invention at effective doses result in the disappearance of microtubules in both interphase and mitotic cells.

Proteus vulgaris SRI 180 = assay: Agar disc diffusion assay; type: cell-based; conditions: 240 ug/disc, about 24 hr at 37° C., 0 = no measurable zone
Experimental: as §1

[3] = test system: Staphylococcus aureus SRI 1323; assay: Agar disc diffusion assay; type: cell-based; conditions: 240 ug/disc, about 24 hr at 37° C.
Experimental: as §1

[4] = test system: Streptococcus pneumoniae SRI 1167; assay: Agar disc diffusion assay; type: cell-based; conditions: 240 ug/disc, about 24 hr at 37° C., + = zone too large to measure
Experimental: as §1

Structure (SMILES) | Diameter of the zone of inhibition, C. albicans (Candida albicans SRI 523) [mm] | Diameter of the zone of inhibition, P. vulgaris (Proteus vulgaris SRI 180) [mm] | Diameter of the zone of inhibition, S. aureus [3] [mm] | Diameter of the zone of inhibition, S. pneumoniae [4] [mm] | other results
Nc1nc(=O)[nH]cc1F [5-fluorocytosine, reference compound] |  |  |  |  | zone of inhibition at 240 µg/disc (Candida albicans SRI 523; Candida albicans, SRI523, read-out: Diameter of the zone of inhibition, C. albicans): 33.5 mm
O=C(CCN1CCN(Cc2ccccc2)CC1)c1cc2ccccc2o1 [Example 10, 1-(Benzofur-2″-yl)-3-(4′-benzyl-1′-piperazinyl)-1-propanone dihydrochloride] |  |  |  |  | pIC50 ([1]; Homo sapiens): 5.22; minimal effective concentration ([2]; Neuroblastoma cell): 20 µM
Cl.Cl.O=C(CCN1CCN(Cc2ccccc2)CC1)c1ccc(F)c(Br)c1 [Example 25, 1-(p-Fluoro-m-bromophenyl)-3-(4′-benzyl-1′-piperazinyl)-1-propanone dihydrochloride] | 26.0 | 16.0 | 27.5 | 36.3 | 
Cl.O=C(CCN1CCN(C(=O)c2ccccc2C(F)(F)F)CC1)c1ccccc1F [Example 43] | 22.5 | 15.9 | 17.7 | 25.3 | 
Cl.Cl.O=C(CCN1CCN(C(c2ccccc2)c2ccc(Cl)cc2)CC1)c1ccc(Br)s1 (centres unmarked) [Example 78, 1(5″-Bromo-2″-thienyl)-3-[4′-(1′″-p-chlorophenyl-1′″-phenylmethyl)-1′-piperazinyl]-1-propanone dihydrochloride] | 15.2 | 14.5 | 16.2 | 19.7 | 
Cl.Cl.O=C(CCN1CCN(Cc2ccccc2)CC1)c1csc([N+](=O)[O-])c1 [Example 80, 1-(5″-Nitro-3″-thienyl)-3-(4′-benzyl-1′-piperazinyl)-1-propanone dihydrochloride] | 14.5 | 13.8 | 17.2 |  | pIC50 [1]: 5.24
Cl.Cl.O=C(CCN1CCN(Cc2ccccc2)CC1)c1cc([N+](=O)[O-])c(Cl)s1 [Example 95, 1-(5″-Chloro-4″-nitro-2″-thienyl)-3-(4′-benzyl-1′-piperazinyl)-1-propanone dihydrochloride] |  |  |  |  | pIC50 [1]: 5.55; minimal effective concentration [2]: 20 µM
Cl.Cl.O=C(CCN1CCN(Cc2ccccc2)CC1)c1ccc(Nc2ccc([N+](=O)[O-])cc2[N+](=O)[O-])cc1 [Example 113] |  |  |  |  | minimal effective concentration [2]: 20 µM
[H]/N=C(/N)N[C@H]1[C@H](O)[C@@H](O)[C@H](O[C@@H]2O[C@@H](C)[C@](O)(C=O)[C@H]2O[C@@H]2O[C@@H](CO)[C@H](O)[C@@H](O)[C@@H]2NC)[C@@H](N/C(N)=N\[H])[C@@H]1O [streptomycin, reference compound] |  |  |  |  | zone of inhibition at 240 µg/disc (Proteus vulgaris SRI 180; Proteus vulgaris, SRI180, read-out: Diameter of the zone of inhibition, P. vulgaris): 37.6 mm; zone of inhibition at 240 µg/disc ([3]; Staphylococcus aureus, SRI1323, read-out: Diameter of the zone of inhibition, S. aureus): 28.4 mm; zone of inhibition at 240 µg/disc ([4]; Streptococcus pneumoniae, SRI1167, read-out: Diameter of the zone of inhibition, S. pneumoniae): 39.8 mm
CC[C@]1(O)C[C@@H]2CN(CCc3c([nH]c4ccccc34)[C@@](C(=O)OC)(c3cc4c(cc3OC)N(C)[C@H]3[C@@](O)(C(=O)OC)[C@H](OC(C)=O)[C@]5(CC)C=CCN6CC[C@]43[C@@H]65)C2)C1 [vinblastine, reference compound] |  |  |  |  | minimal effective concentration ([2]; Neuroblastoma cell): 0.05 µM
